IC50 and Ki data for 26 compounds are collected here from patent US10988477B2 (Merck Patent GmbH, priority 2018, dated 2021).

SMILES strings stand for the structures. Where two headings read alike, the source gives them in different places.

Experiment [1] has as its target intracellular GCN2 (phosphorylation of the GCN2 substrate eIF2α) (Homo sapiens, UniProt Q9P2K8). The experiment in a line: GCN2 cellular inhibition assay (AlphaScreen SureFire P-eIF2α Ser51, borrelidin-treated U2OS cells). The format is cell-based. In a few lines:
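Read-out: AlphaScreen SureFire phospho-eIF2α (Ser51) signal in U2OS lysates. Cells get 4-fold compound dilutions (top 40 μM final) plus 10 μM borrelidin, 1 h, 37 °C. Percent inhibition is relative to borrelidin-alone controls.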
For orientation: Bead proximity is the source of the signal in Alpha formats.

The target in experiment [2] is GCN2 kinase (Homo sapiens, UniProt Q9P2K8). Briefly: GCN2 enzyme inhibition assay (Transcreener ADP2 fluorescence polarization). The format is biochemical. The settings on record: 280 μM ATP. In a few lines: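 4 nM GCN2 + 200 μM (RS)7 + compound (0–8 μM), 10 min preinc.; start with ATP (280 μM final); 1 h, 25 °C; pH 7.5 Tris/NaCl/MgCl2/DTT; ADP FP readout; IC50, Ki(app) via tight-binding fit.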
GCN2 kinase, sequence (Q9P2K8 whole entry): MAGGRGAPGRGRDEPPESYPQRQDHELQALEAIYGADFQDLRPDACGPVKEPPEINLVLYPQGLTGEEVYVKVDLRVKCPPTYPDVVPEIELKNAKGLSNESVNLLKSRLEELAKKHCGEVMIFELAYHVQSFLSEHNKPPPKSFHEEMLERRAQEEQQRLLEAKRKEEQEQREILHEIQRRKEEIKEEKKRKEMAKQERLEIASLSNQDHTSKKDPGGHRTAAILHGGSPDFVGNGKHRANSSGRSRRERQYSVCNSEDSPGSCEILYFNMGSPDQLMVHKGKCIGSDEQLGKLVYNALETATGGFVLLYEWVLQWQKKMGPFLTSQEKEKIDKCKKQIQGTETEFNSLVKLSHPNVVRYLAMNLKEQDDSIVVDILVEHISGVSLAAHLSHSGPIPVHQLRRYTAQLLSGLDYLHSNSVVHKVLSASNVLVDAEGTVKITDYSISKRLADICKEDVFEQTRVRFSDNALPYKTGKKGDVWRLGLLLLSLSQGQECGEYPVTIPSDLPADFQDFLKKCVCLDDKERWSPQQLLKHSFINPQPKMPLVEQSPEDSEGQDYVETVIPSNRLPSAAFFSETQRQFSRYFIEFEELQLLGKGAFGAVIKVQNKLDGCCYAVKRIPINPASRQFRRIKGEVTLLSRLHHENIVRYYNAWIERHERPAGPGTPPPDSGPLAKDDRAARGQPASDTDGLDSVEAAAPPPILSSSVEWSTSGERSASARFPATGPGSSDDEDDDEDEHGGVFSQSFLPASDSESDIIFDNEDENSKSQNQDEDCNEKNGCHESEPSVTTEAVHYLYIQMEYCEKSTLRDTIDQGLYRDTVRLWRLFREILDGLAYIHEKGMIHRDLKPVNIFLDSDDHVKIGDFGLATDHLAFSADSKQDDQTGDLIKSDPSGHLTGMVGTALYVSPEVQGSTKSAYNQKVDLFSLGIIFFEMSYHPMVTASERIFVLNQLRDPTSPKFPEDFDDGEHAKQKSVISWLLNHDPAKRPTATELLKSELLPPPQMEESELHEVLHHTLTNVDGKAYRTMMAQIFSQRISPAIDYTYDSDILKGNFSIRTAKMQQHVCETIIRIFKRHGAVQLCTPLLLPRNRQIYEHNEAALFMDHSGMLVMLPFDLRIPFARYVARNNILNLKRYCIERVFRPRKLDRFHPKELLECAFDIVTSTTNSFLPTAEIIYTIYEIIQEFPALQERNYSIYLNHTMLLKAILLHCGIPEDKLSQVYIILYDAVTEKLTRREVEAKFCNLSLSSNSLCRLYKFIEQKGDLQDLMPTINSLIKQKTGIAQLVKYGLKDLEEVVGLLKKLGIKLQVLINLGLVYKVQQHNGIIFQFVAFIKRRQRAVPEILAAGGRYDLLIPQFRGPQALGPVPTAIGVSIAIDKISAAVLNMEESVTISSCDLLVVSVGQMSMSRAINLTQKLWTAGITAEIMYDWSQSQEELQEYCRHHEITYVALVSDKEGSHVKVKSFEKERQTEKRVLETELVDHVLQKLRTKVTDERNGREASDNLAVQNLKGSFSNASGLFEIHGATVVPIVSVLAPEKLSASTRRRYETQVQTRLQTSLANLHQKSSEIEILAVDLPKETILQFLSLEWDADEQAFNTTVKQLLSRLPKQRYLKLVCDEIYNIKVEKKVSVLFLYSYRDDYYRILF

Where [3] appears, read: compounds of Formula II, biomarker assay, phosphorylated eIF2α Ser51 in borrelidin-treated U2OS cells.
Where [4] appears, read: compounds of Formula II, 4 nM GCN2 kinase.
[5] abbreviates: compounds of Formula IV, biomarker assay, phosphorylated eIF2α Ser51 in borrelidin-treated U2OS cells.
Where [6] appears, read: Enzyme activity for compounds of Formula IV, Ki(app), 25° C.

intracellular GCN2 (phosphorylation of the GCN2 substrate eIF2α), sequence (Q9P2K8 whole entry): as above

As to `CS(=O)(=O)N1CC2(CN(c3cc(-c4cnc5ccc(C(F)F)nn45)ncn3)CCO2)C1` [II-273, 8-(6-(6-(Difluoromethyl)imidazo[1,2-b]pyridazin-3-yl)pyrimidin-4-yl)-2-(methylsulfonyl)-5-oxa-2,8-diazaspiro[3.5]nonane], in experiment [1] (setting [3]), the IC50 (in general, the concentration needed to halve the response being measured) was 500 to 5000 nM. In experiment [2] (setting [4]), this compound displayed a Ki of 10 to 1000 nM.

`CN=S(C)(=O)CC1CCCN(c2cc(-c3cnc4ccc(C(F)F)nn34)ncn2)C1` (stereo not shown) [II-26, [1-[6-[6-(Difluoromethyl)imidazo[1,2-b]pyridazin-3-yl]pyrimidin-4-yl]-3-piperidyl]methyl-methyl-methylimino-oxo-sulfane] returned a 50% inhibitory concentration (IC50) in experiment [1] (setting [3]) of over 5000 nM. Besides, the Ki in experiment [2] (setting [4]) is 10 to 1000 nM.

In experiment [1] (setting [5]), `CS(=O)(=O)NC1CCN(c2ccnc(-c3cnc4cnc(C(F)F)cn34)n2)C1` (stereo not shown) [IV-70, N-(1-(2-(6-(Difluoromethyl)imidazo[1,2-a]pyrazin-3-yl)pyrimidin-4-yl)pyrrolidin-3-yl)methanesulfonamide] returned an IC50 of over 5000 nM. Also, in experiment [2] (setting [6]), the Ki was in the range of 100 to 1000 nM.

In turn, `CC(=O)N1CCN(c2nccc(-c3cnc4cnc(C(N)=O)cn34)n2)CC1` [IV-182, 3-(2-(4-Acetylpiperazin-1-yl)pyrimidin-4-yl)imidazo[1,2-a]pyrazine-6-carboxamide] gave an IC50 in experiment [1] (setting [5]) of 500 to 5000 nM. Moreover, the Ki in experiment [2] (setting [6]) is 10 to 100 nM.

Regarding `Cc1cn2c(-c3nccc(N4CCNC(c5cn[nH]c5)C4C)n3)cnc2cn1` (stereo not shown) [IV-398, 6-Methyl-3-(4-(2-methyl-3-(1H-pyrazol-4-yl)piperazin-1-yl)pyrimidin-2-yl)imidazo[1,2-a]pyrazine], in experiment [1] (setting [5]), the half-inhibitory concentration (IC50) was over 5000 nM. In experiment [2] (setting [6]), this compound had a Ki of 10 to 100 nM.

Consider `CS(=N)(=O)CC1CCCN(c2ccnc(-c3cnc4sc(C(F)(F)F)cn34)n2)C1` (racemic) [Compound V-19, Imino(methyl)((1-(2-(2-(trifluoromethyl)imidazo[2,1-b]thiazol-5-yl)pyrimidin-4-yl)piperidin-3-yl)methyl)-λ^6-sulfanone], for which the IC50 in experiment [1] (compounds of Formula V, U2OS cells, 10 μM borrelidin, 1 h, read-out: GCN2 Biomarker (IC50)) is over 5000 nM. In experiment [2] (compounds of Formula V, 4 nM GCN2 kinase), this compound came in with a Ki of 100 to 1000 nM.

Compound `FC(F)c1cn2c(-c3nccc(N4CCC(c5cc[nH]n5)C4)n3)cnc2cn1` (stereo not shown) [IV-64, 3-(4-(3-(1H-Pyrazol-3-yl)pyrrolidin-1-yl)pyrimidin-2-yl)-6-(difluoromethyl)imidazo[1,2-a]pyrazine] gave an IC50 in experiment [1] (setting [5]) of over 5000 nM. The compound also returned a Ki in experiment [2] (setting [6]) of 100 to 1000 nM.

Compound `CS(=O)(=O)NCC1CC(N2CC(F)C2)CN(c2cc(-c3cnc4ccc(C(F)F)nn34)ncn2)C1` (stereo not shown) [II-428, N-((1-(6-(6-(Difluoromethyl)imidazo[1,2-b]pyridazin-3-yl)pyrimidin-4-yl)-5-(3-fluoroazetidin-1-yl)piperidin-3-yl)methyl)methanesulfonamide] showed an IC50 in experiment [1] (setting [3]) of over 5000 nM. This compound came in with a Ki in experiment [2] (setting [4]) of 10 to 1000 nM.

Take `C[C@H]1[C@H](CNS(C)(=O)=O)N(C2CC2)CCN1c1cc(-c2cnc3ccc(C(F)F)nn23)ncn1` [II-769, N-(((2S,3S)-1-cyclopropyl-4-(6-(6-(difluoromethyl)imidazo[1,2-b]pyridazin-3-yl)pyrimidin-4-yl)-3-methylpiperazin-2-yl)methyl)methanesulfonamide]: the IC50 is 500 to 5000 nM in experiment [1] (setting [3]) and 10 to 1000 nM in experiment [2] (setting [4]).

`FC(F)OC1CC(c2cn[nH]c2)CN(c2ccnc(-c3cnc4cnc(C(F)(F)F)cn34)n2)C1` (stereo not shown) [IV-466, 3-(4-(3-(Difluoromethoxy)-5-(1H-pyrazol-4-yl)piperidin-1-yl)pyrimidin-2-yl)-6-(trifluoromethyl)imidazo[1,2-a]pyrazine] displayed a half-inhibitory concentration (IC50) in experiment [1] (setting [5]) of 500 to 5000 nM. The compound further gave a Ki in experiment [2] (setting [6]) of under 10 nM.

On to `CC1CN(c2cc(-c3cnc4ccc(C(F)F)nn34)ncn2)CC(CNS(C)(=O)=O)C12OCCO2` (stereo not shown) [II-527, N-((8-(6-(6-(Difluoromethyl)imidazo[1,2-b]pyridazin-3-yl)pyrimidin-4-yl)-10-methyl-1,4-dioxa-8-azaspiro[4.5]decan-6-yl)methyl)methanesulfonamide], for which the IC50 in experiment [1] (setting [3]) was under 500 nM. For the same compound, in experiment [2] (setting [4]), the Ki was under 10 nM.

As to `CC1CC(P(C)(C)=O)CN(c2cc(-c3cnc4ccc(C(F)F)nn34)ncn2)C1` (stereo not shown) [II-710, 6-(Difluoromethyl)-3-[6-(3-dimethylphosphoryl-5-methyl-1-piperidyl)pyrimidin-4-yl]imidazo[1,2-b]pyridazine], the 50% inhibitory concentration (IC50) in experiment [1] (setting [3]) fell in the range of 500 to 5000 nM. The Ki in experiment [2] (setting [4]) lay within 10 to 1000 nM.

Compound `CC1C(CNS(C)(=O)=O)C(F)(F)CCN1c1cc(-c2cnc3ccc(C(F)F)nn23)ncn1` (single isomer, unassigned) [II-302, N-((1-(6-(6-(Difluoromethyl)imidazo[1,2-b]pyridazin-3-yl)pyrimidin-4-yl)-4,4-difluoro-2-methylpiperidin-3-yl)methyl)methanesulfonamide] came in with a 50% inhibitory concentration (IC50) in experiment [1] (setting [3]) of 500 to 5000 nM. The compound also gave a Ki in experiment [2] (setting [4]) of 10 to 1000 nM.

Regarding `Cc1nc(C2CCCN(c3ccnc(-c4cnc5cnc(Br)cn45)n3)C2)c[nH]1` (stereo not shown) [IV-355, 6-Bromo-3-(4-(3-(2-methyl-1H-imidazol-4-yl)piperidin-1-yl)pyrimidin-2-yl)imidazo[1,2-a]pyrazine], the IC50 in experiment [1] (setting [5]) fell in the range of 500 to 5000 nM. Also, the Ki in experiment [2] (setting [6]) is under 10 nM.

Regarding `CS(C)(=O)=NC1CCCN(c2cc(-c3cnc4ccc(C(F)F)nn34)ncn2)C1` (single isomer, unassigned) [II-503, ((1-(6-(6-(Difluoromethyl)imidazo[1,2-b]pyridazin-3-yl)pyrimidin-4-yl)piperidin-3-yl)imino)dimethyl-λ^6-sulfanone], the IC50 in experiment [1] (setting [3]) lay in the range of 500 to 5000 nM. The same compound returned a Ki in experiment [2] (setting [4]) of 10 to 1000 nM.

In experiment [1] (setting [3]), `CS(=O)(=O)NCC1CCN(c2cc(-c3cnc4ccc(C(F)F)nn34)ncn2)C1` (stereo not shown) [II-394, N-((1-(6-(6-(Difluoromethyl)imidazo[1,2-b]pyridazin-3-yl)pyrimidin-4-yl)pyrrolidin-3-yl)methyl)methanesulfonamide] had a half-maximal inhibitory concentration (IC50) of 500 to 5000 nM. This compound also had a Ki in experiment [2] (setting [4]) of 10 to 1000 nM.

Compound `OCC1CN(c2cc(-c3cnc4ccc(C(F)(F)F)nn34)ncn2)CCO1` (stereo not shown) [II-518, (4-(6-(6-(Trifluoromethyl)imidazo[1,2-b]pyridazin-3-yl)pyrimidin-4-yl)morpholin-2-yl)methanol] displayed an IC50 in experiment [1] (setting [3]) of over 5000 nM. In experiment [2] (setting [4]), this compound yielded a Ki of 10 to 1000 nM.

Turning to `CS(=O)(=O)NCC1CCCN(c2cc(-c3cnc4ccc(C(F)F)nn34)cc(Cl)n2)C1` (stereo not shown) [II-61, N-((1-(6-Chloro-4-(6-(difluoromethyl)imidazo[1,2-b]pyridazin-3-yl)pyridin-2-yl)piperidin-3-yl)methyl)methanesulfonamide], the IC50 in experiment [1] (setting [3]) fell in the range of 500 to 5000 nM. Further, the Ki in experiment [2] (setting [4]) was under 10 nM.

In turn, `C[S+]([O-])CC1CCCN(c2cc(-c3cnc4ccc(C(F)F)nn34)ccn2)C1` (stereo not shown) [II-151, 6-(Difluoromethyl)-3-(2-(3-((methylsulfinyl)methyl)piperidin-1-yl)pyridin-4-yl)imidazo[1,2-b]pyridazine] gave an IC50 in experiment [1] (setting [3]) of 500 to 5000 nM. In experiment [2] (setting [4]), this compound yielded a Ki of 10 to 1000 nM.

With `O=C1CN(CC2CCN(c3cc(-c4cnc5ccc(C(F)F)nn45)ncn3)C2)CCN1` (stereo not shown) [II-353, 4-((1-(6-(6-(Difluoromethyl)imidazo[1,2-b]pyridazin-3-yl)pyrimidin-4-yl)pyrrolidin-3-yl)methyl)piperazin-2-one], in experiment [1] (setting [3]), the half-maximal inhibitory concentration (IC50) was over 5000 nM. The same compound returned a Ki in experiment [2] (setting [4]) of 10 to 1000 nM.

In turn, `CC1CN(c2cc(-c3cnc4ccc(C(F)F)nn34)ncn2)CC(CNS(C)(=O)=O)C1=O` (stereo not shown) [II-525, N-((1-(6-(6-(Difluoromethyl)imidazo[1,2-b]pyridazin-3-yl)pyrimidin-4-yl)-5-methyl-4-oxopiperidin-3-yl)methyl)methanesulfonamide] gave an IC50 in experiment [1] (setting [3]) of under 500 nM. This compound registered a Ki in experiment [2] (setting [4]) of under 10 nM.

In experiment [1] (setting [3]), `FC(F)c1ccc2ncc(-c3cc(N4CCOC(Cn5cncn5)C4)ncn3)n2n1` (stereo not shown) [II-326, 2-((1H-1,2,4-Triazol-1-yl)methyl)-4-(6-(6-(difluoromethyl)imidazo[1,2-b]pyridazin-3-yl)pyrimidin-4-yl)morpholine] came in with an IC50 of over 5000 nM. In experiment [2] (setting [4]), this compound returned a Ki of 10 to 1000 nM.

Consider `CC1CN(c2ccnc(-c3cnc4cnc(C#N)cn34)n2)CC(c2cn[nH]c2)O1` (single isomer, unassigned) [IV-191, 3-(4-(2-Methyl-6-(1H-pyrazol-4-yl)morpholino)pyrimidin-2-yl)imidazo[1,2-a]pyrazine-6-carbonitrile], for which the 50% inhibitory concentration (IC50) in experiment [1] (setting [5]) lay within 500 to 5000 nM. The same compound gave a Ki in experiment [2] (setting [6]) of 10 to 100 nM.

In the case of `FC(F)c1ccc2ncc(-c3cc(N4CCCCC4C(F)(F)F)ncn3)n2n1` (stereo not shown) [II-380, 6-(Difluoromethyl)-3-(6-(2-(trifluoromethyl)piperidin-1-yl)pyrimidin-4-yl)imidazo[1,2-b]pyridazine], the half-maximal inhibitory concentration (IC50) in experiment [1] (setting [3]) was over 5000 nM. Besides, in experiment [2] (setting [4]), the Ki is over 1000 nM.

`FC(F)(F)c1cn2c(-c3nccc(N4CCC(c5c[nH]nc5C5CC5)C4)n3)cnc2cn1` (stereo not shown) [IV-576, 3-(4-(3-(3-Cyclopropyl-1H-pyrazol-4-yl)pyrrolidin-1-yl)pyrimidin-2-yl)-6-(trifluoromethyl)imidazo[1,2-a]pyrazine] gave a concentration for half-maximal inhibition (IC50) in experiment [1] (setting [5]) of 500 to 5000 nM. The Ki in experiment [2] (setting [6]) was 10 to 100 nM.

Consider `CC1CN(c2ccnc(-c3cnc4cnc(C(F)(F)F)cn34)n2)CC(c2cn[nH]c2)O1` (stereo not shown) [IV-10, 2-Methyl-6-(1H-pyrazol-4-yl)-4-(2-(6-(trifluoromethyl)imidazo[1,2-a]pyrazin-3-yl)pyrimidin-4-yl)morpholine], for which, in experiment [1] (setting [5]), the 50% inhibitory concentration (IC50) was under 500 nM. This compound also came in with a Ki in experiment [2] (setting [6]) of under 10 nM.
